Results: patent publication US20110039879A1, “METHODS FOR INCREASING WHITE BLOOD CELLS” (FibroGen ,Inc., priority 2007, published 2011)

What was measured:
Type in all cases: in vivo, Swiss-Webster mice
neutrophils [1] = experiment: Neutrophils by complete blood count, once daily dosing 3 or 4 days; conditions: mice, oral gavage, blood 6 h after final dosing, CBC
Method: (§1) To examine the effect of compounds and methods of the present invention on increasing white blood cells, the following studies were performed. In one series of experiments, male Swiss-Webster mice were administered various compounds of the present invention via oral gavage using a ball-tipped gavage needle. Animals treated by oral gavage received a 10 ml/kg volume of either 0.5% carboxymethyl cellulose (CMC) with 0.1% Polysorbate 80 (vehicle control) or various doses (10-100 mg/kg) of a compound of the present invention in 0.5% CMC with 0.1% Polysorbate 80. Animals were dosed once daily for 3 or 4 days. Six hours after the final dosing, 200 μl blood samples were collected and total white blood cell, neutrophil, and lymphocyte levels were measured by complete blood count (CBC) using a CellDyn cell analyzer (Abbott Laboratories).

[2] = tested on: hematopoietic progenitor cells (HPCs) in bone marrow; experiment: Hematopoietic progenitor cells in bone marrow by FACS analysis; conditions: mice, oral gavage, tibia bone marrow 6 h after final dosing
Method: (§2) Six hours after the final dosing, 200 μl blood samples were collected for detection of hematopoietic progenitor cells (HPCs) and neutrophils by FACS analysis using methods previously described. (See, e.g., Wang et al. (1997) J Leukoc Biol 62 503-9 and Legasse et al. (1996) J Immunol Methods 197:139-50.) Briefly, leukocytes and progenitor cells were isolated from whole blood samples following erythrocyte depletion using red blood cell lysis buffer (eBioscience) according to the manufacturer's instructions. The remaining cells were incubated for one hour with monoclonal antibodies directed against mouse Sca-1 and mouse c-Kit (cell surface markers for HPCs, BD Pharmingen), or mouse Mac-1 and mouse Gr-1 (cell surface markers for murine neutrophils, BD Pharmingen). Following incubation with the monoclonal antibodies, the cells were washed three times with sort buffer (PBS, 1% fetal bovine serum) and resuspended in sort buffer containing 50 μg/ml of propidium iodide. Samples were then analyzed for the presence and quantitation of HPCs and neutrophils by flow cytometry (FACS Calibur, Becton Dickinson). The cytometer was set to acquire 10 000 events. Two or three blood samples obtained from each animal were analyzed and the average recorded. Hematopoietic progenitor cells were determined as double positive Sca-1+/c-Kit+ cells and neutrophils were determined as double positive Mac-1+/Gr-1+ cells.
(§3) To examine the effect of compounds and methods of the present invention on hematopoietic progenitor cell (HPC) and neutrophil levels in bone marrow, the following studies were performed. Male Swiss-Webster mice were administered various compounds of the present invention via oral gavage using a ball-tipped gavage needle. Animals treated by oral gavage received a 10 ml/kg volume of either 0.5% carboxymethyl cellulose (CMC) with 0.1% Polysorbate 80 (vehicle control) or various doses (10-100 mg/kg) of a compound of the present invention in 0.5% CMC with 0.1% Polysorbate 80. Animals were dosed once daily for 3 or 4 days. Six hours after the final dosing, bone marrow samples were taken from one tibia of each animal and suspended in buffer (PBS with 1% fetal bovine serum). Bone marrow suspensions were then filtered through nylon filters to remove stromal cells. Following filtration, the remaining cells were counted manually using a hemocytometer. Detection and quantitation of HPCs and neutrophils were performed by FACS analysis as described above in Example 1.

neutrophils [3] = experiment: Neutrophils (Mac-1+/Gr-1+) in blood by FACS analysis; conditions: mice, oral gavage, blood 6 h after final dosing
Method: (§4) To examine the effect of compounds and methods of the present invention on hematopoietic progenitor cell (HPC) and neutrophil levels, the following studies were performed. Male Swiss-Webster mice were administered various compounds of the present invention via oral gavage using a ball-tipped gavage needle. Animals treated by oral gavage received a 10 ml/kg volume of either 0.5% carboxymethyl cellulose (CMC) with 0.1% Polysorbate 80 (vehicle control) or various doses (10-100 mg/kg) of a compound of the present invention in 0.5% CMC with 0.1% Polysorbate 80. Animals were dosed once daily for 3 or 4 days.
as §2

[4] = tested on: neutrophils in bone marrow; experiment: Neutrophils in bone marrow by FACS analysis; conditions: mice, oral gavage, tibia bone marrow 6 h after final dosing
Method: as §2, §3

lymphocytes = experiment: Lymphocytes by complete blood count, once daily dosing 3 or 4 days; conditions: mice, oral gavage, blood 6 h after final dosing, CBC
Method: as §1

[5] = tested on: hematopoietic progenitor cells (HPCs); experiment: Hematopoietic progenitor cells (Sca-1+/c-Kit+) in blood by FACS analysis; conditions: mice, oral gavage, blood 6 h after final dosing
Method: as §4, §2

[6] = tested on: total white blood cell (WBC); experiment: Total white blood cells by complete blood count, once daily dosing 3 or 4 days; conditions: mice, oral gavage, blood 6 h after final dosing
Method: as §1

[7] = 100 mg/kg once daily for 4 days

COc1ccc(Oc2ccc3c(O)c(C(=O)NCC(=O)O)ncc3c2)cc1 [Compound A, {[4-Hydroxy-7-(4-methoxy-phenoxy)-isoquinoline-3-carbonyl]-amino}-acetic acid]
Neutrophils (neutrophils [1]; 60 mg/kg once daily for 3 days): 0.78 10^3 cells/μl
Neutrophils % Increase Over Control (neutrophils [1]; 60 mg/kg once daily for 3 days): 18%
Neutrophils (neutrophils [1]; [7]): 1.22 10^3 cells/μl
Neutrophils % Increase Over Control (neutrophils [1]; [7]): 94%
Percent Bone Marrow HPCs ([2]; 60 mg/kg once daily for 3 days): 5.1 % gated cells
Percent Bone Marrow HPCs Fold Increase Over Control ([2]; 60 mg/kg once daily for 3 days): 1.3 fold
Percent Bone Marrow HPCs [2, 7]: 6.7 % gated cells
Percent Bone Marrow HPCs Fold Increase Over Control [2, 7]: 1.5 fold
Blood Neutrophils (neutrophils [3]; 60 mg/kg once daily for 3 days): 200 cells/μl
Blood Neutrophils Fold Increase Over Control (neutrophils [3]; 60 mg/kg once daily for 3 days): 2.0 fold
Percent Blood Neutrophils (neutrophils [3]; 60 mg/kg once daily for 3 days): 2.3 % gated cells
Percent Blood Neutrophils Fold Increase Over Control (neutrophils [3]; 60 mg/kg once daily for 3 days): 1.6 fold
Blood Neutrophils (neutrophils [3]; [7]): 1,083 cells/μl
Blood Neutrophils Fold Increase Over Control (neutrophils [3]; [7]): 6.1 fold
Percent Blood Neutrophils (neutrophils [3]; [7]): 11.3 % gated cells
Percent Blood Neutrophils Fold Increase Over Control (neutrophils [3]; [7]): 3.4 fold
Percent Bone Marrow Neutrophils ([4]; 60 mg/kg once daily for 3 days): 33.4 % gated cells
Percent Bone Marrow Neutrophils Fold Increase Over Control ([4]; 60 mg/kg once daily for 3 days): 1.1 fold
Percent Bone Marrow Neutrophils [4, 7]: 33.7 % gated cells
Percent Bone Marrow Neutrophils Fold Increase Over Control [4, 7]: 1.3 fold
Lymphocytes (lymphocytes; 60 mg/kg once daily for 3 days): 7.82 10^3 cells/μl
Lymphocytes % Increase Over Control (lymphocytes; 60 mg/kg once daily for 3 days): 14%
Lymphocytes (lymphocytes; [7]): 8.30 10^3 cells/μl
Lymphocytes % Increase Over Control (lymphocytes; [7]): 8%
Blood HPCs ([5]; 60 mg/kg once daily for 3 days): 76 cells/μl
Blood HPCs Fold Increase Over Control ([5]; 60 mg/kg once daily for 3 days): 1.7 fold
Percent Blood HPCs ([5]; 60 mg/kg once daily for 3 days): 0.9 % gated cells
Percent Blood HPCs Fold Increase Over Control ([5]; 60 mg/kg once daily for 3 days): 1.4 fold
Blood HPCs [5, 7]: 125 cells/μl
Blood HPCs Fold Increase Over Control [5, 7]: 7.4 fold
Percent Blood HPCs [5, 7]: 1.3 % gated cells
Percent Blood HPCs Fold Increase Over Control [5, 7]: 4.1 fold
Total WBC ([6]; 60 mg/kg once daily for 3 days): 8.66 10^3 cells/μl
Total WBC % Increase Over Control ([6]; 60 mg/kg once daily for 3 days): 12%
Total WBC [6, 7]: 9.62 10^3 cells/μl
Total WBC % Increase Over Control [6, 7]: 14%

Cc1cccc(C)c1Oc1ccc2c(C#N)nc(C(=O)NCC(=O)O)c(O)c2c1 [Compound C]
Neutrophils (neutrophils [1]; 20 mg/kg once daily for 3 days): 0.97 10^3 cells/μl
Neutrophils % Increase Over Control (neutrophils [1]; 20 mg/kg once daily for 3 days): 142%
Neutrophils (neutrophils [1]; 20 mg/kg once daily for 4 days): 0.77 10^3 cells/μl
Neutrophils % Increase Over Control (neutrophils [1]; 20 mg/kg once daily for 4 days): −4%
Neutrophils (neutrophils [1]; 60 mg/kg once daily for 3 days): 1.73 10^3 cells/μl
Neutrophils % Increase Over Control (neutrophils [1]; 60 mg/kg once daily for 3 days): 333%
Neutrophils (neutrophils [1]; 60 mg/kg once daily for 4 days): 1.37 10^3 cells/μl
Neutrophils % Increase Over Control (neutrophils [1]; 60 mg/kg once daily for 4 days): 71%
Percent Bone Marrow HPCs ([2]; 20 mg/kg once daily for 3 days): 4.9 % gated cells
Percent Bone Marrow HPCs Fold Increase Over Control ([2]; 20 mg/kg once daily for 3 days): 1.5 fold
Percent Bone Marrow HPCs ([2]; 20 mg/kg once daily for 4 days): 1.4 % gated cells
Percent Bone Marrow HPCs Fold Increase Over Control ([2]; 20 mg/kg once daily for 4 days): 1.2 fold
Percent Bone Marrow HPCs ([2]; 60 mg/kg once daily for 3 days): 6.1 % gated cells
Percent Bone Marrow HPCs Fold Increase Over Control ([2]; 60 mg/kg once daily for 3 days): 1.8 fold
Percent Bone Marrow HPCs ([2]; 60 mg/kg once daily for 4 days): 1.8 % gated cells
Percent Bone Marrow HPCs Fold Increase Over Control ([2]; 60 mg/kg once daily for 4 days): 1.5 fold
Blood Neutrophils (neutrophils [3]; 20 mg/kg once daily for 3 days): 1,375 cells/μl
Blood Neutrophils Fold Increase Over Control (neutrophils [3]; 20 mg/kg once daily for 3 days): 2.8 fold
Percent Blood Neutrophils (neutrophils [3]; 20 mg/kg once daily for 3 days): 11.6 % gated cells
Percent Blood Neutrophils Fold Increase Over Control (neutrophils [3]; 20 mg/kg once daily for 3 days): 1.2 fold
Blood Neutrophils (neutrophils [3]; 20 mg/kg once daily for 4 days): 1,067 cells/μl
Blood Neutrophils Fold Increase Over Control (neutrophils [3]; 20 mg/kg once daily for 4 days): 2.0 fold
Percent Blood Neutrophils (neutrophils [3]; 20 mg/kg once daily for 4 days): 15.8 % gated cells
Percent Blood Neutrophils Fold Increase Over Control (neutrophils [3]; 20 mg/kg once daily for 4 days): 1.5 fold
Blood Neutrophils (neutrophils [3]; 60 mg/kg once daily for 3 days): 2,487 cells/μl
Blood Neutrophils Fold Increase Over Control (neutrophils [3]; 60 mg/kg once daily for 3 days): 5.1 fold
Percent Blood Neutrophils (neutrophils [3]; 60 mg/kg once daily for 3 days): 17.6 % gated cells
Percent Blood Neutrophils Fold Increase Over Control (neutrophils [3]; 60 mg/kg once daily for 3 days): 1.8 fold
Blood Neutrophils (neutrophils [3]; 60 mg/kg once daily for 4 days): 2,933 cells/μl
Blood Neutrophils Fold Increase Over Control (neutrophils [3]; 60 mg/kg once daily for 4 days): 5.5 fold
Percent Blood Neutrophils (neutrophils [3]; 60 mg/kg once daily for 4 days): 12.2 % gated cells
Percent Blood Neutrophils Fold Increase Over Control (neutrophils [3]; 60 mg/kg once daily for 4 days): 1.2 fold
Percent Bone Marrow Neutrophils ([4]; 20 mg/kg once daily for 3 days): 47.1 % gated cells
Percent Bone Marrow Neutrophils Fold Increase Over Control ([4]; 20 mg/kg once daily for 3 days): 1.2 fold
Percent Bone Marrow Neutrophils ([4]; 60 mg/kg once daily for 3 days): 41.3 % gated cells
Percent Bone Marrow Neutrophils Fold Increase Over Control ([4]; 60 mg/kg once daily for 3 days): 1.0 fold
Lymphocytes (lymphocytes; 20 mg/kg once daily for 3 days): 10.63 10^3 cells/μl
Lymphocytes % Increase Over Control (lymphocytes; 20 mg/kg once daily for 3 days): 117%
Lymphocytes (lymphocytes; 20 mg/kg once daily for 4 days): 17.97 10^3 cells/μl
Lymphocytes % Increase Over Control (lymphocytes; 20 mg/kg once daily for 4 days): 192%
Lymphocytes (lymphocytes; 60 mg/kg once daily for 3 days): 12.70 10^3 cells/μl
Lymphocytes % Increase Over Control (lymphocytes; 60 mg/kg once daily for 3 days): 159%
Lymphocytes (lymphocytes; 60 mg/kg once daily for 4 days): 22.77 10^3 cells/μl
Lymphocytes % Increase Over Control (lymphocytes; 60 mg/kg once daily for 4 days): 270%
Blood HPCs ([5]; 20 mg/kg once daily for 3 days): 403 cells/μl
Blood HPCs Fold Increase Over Control ([5]; 20 mg/kg once daily for 3 days): 2.7 fold
Percent Blood HPCs ([5]; 20 mg/kg once daily for 3 days): 3.4 % gated cells
Percent Blood HPCs Fold Increase Over Control ([5]; 20 mg/kg once daily for 3 days): 1.6 fold
Blood HPCs ([5]; 20 mg/kg once daily for 4 days): 155 cells/μl
Blood HPCs Fold Increase Over Control ([5]; 20 mg/kg once daily for 4 days): 1.9 fold
Percent Blood HPCs ([5]; 20 mg/kg once daily for 4 days): 0.9 % gated cells
Percent Blood HPCs Fold Increase Over Control ([5]; 20 mg/kg once daily for 4 days): 0.7 fold
Blood HPCs ([5]; 60 mg/kg once daily for 3 days): 486 cells/μl
Blood HPCs Fold Increase Over Control ([5]; 60 mg/kg once daily for 3 days): 3.3 fold
Percent Blood HPCs ([5]; 60 mg/kg once daily for 3 days): 3.4 % gated cells
Percent Blood HPCs Fold Increase Over Control ([5]; 60 mg/kg once daily for 3 days): 1.5 fold
Blood HPCs ([5]; 60 mg/kg once daily for 4 days): 336 cells/μl
Blood HPCs Fold Increase Over Control ([5]; 60 mg/kg once daily for 4 days): 4.1 fold
Percent Blood HPCs ([5]; 60 mg/kg once daily for 4 days): 1.4 % gated cells
Percent Blood HPCs Fold Increase Over Control ([5]; 60 mg/kg once daily for 4 days): 1.2 fold
Total WBC ([6]; 20 mg/kg once daily for 3 days): 11.80 10^3 cells/μl
Total WBC % Increase Over Control ([6]; 20 mg/kg once daily for 3 days): 117%
Total WBC ([6]; 20 mg/kg once daily for 4 days): 18.83 10^3 cells/μl
Total WBC % Increase Over Control ([6]; 20 mg/kg once daily for 4 days): 167%
Total WBC ([6]; 60 mg/kg once daily for 3 days): 14.50 10^3 cells/μl
Total WBC % Increase Over Control ([6]; 60 mg/kg once daily for 3 days): 166%
Total WBC ([6]; 60 mg/kg once daily for 4 days): 24.33 10^3 cells/μl
Total WBC % Increase Over Control ([6]; 60 mg/kg once daily for 4 days): 245%
